For experiment [1], the target named is κ opioid receptor (Homo sapiens, UniProt P41145). The experiment in a line: κ-opioid receptor [35S]GTPγS functional assay, U-2 OS cells. The conditions noted are these: U-2 OS cells; for EC50: read-out: GTPγS κ EC50; for Emax: relative to U69,593, read-out: GTPγS κ Emax. Details: expressed in transfected cells; host or cells: U-2 OS (in-house membranes). Type of experiment: biochemical.
Description: Membranes from recombinant HEK-293 cells, CHO or U-2 OS cells expressing the recombinant human κ opioid receptor (κ) were prepared by lysing cells in ice cold hypotonic buffer (2.5 mM MgCl2, 50 mM HEPES, pH 7.4) (10 mL/10 cm dish) followed by homogenization with a tissue grinder/Teflon pestle. […] Membranes were collected by centrifugation at 30,000×g for 15 min at 4° C. and pellets were resuspended in hypotonic buffer to a final concentration of 1-3 mg/mL. Protein concentrations were determined using the BioRad protein assay reagent with bovine serum albumen as standard. Aliquots of κ receptor membranes were stored at −80° C.
Plates were incubated for 30 min at a temperature of about 25° C. with shaking.

Experiment [2] deals with μ-opioid receptor (Homo sapiens, UniProt P35372). The experiment in a line: μ-opioid receptor [35S]GTPγS functional assay, U-2 OS cells. Type of experiment: biochemical. The note with it: U-2 OS cells; for EC50: read-out: GTPγS μ EC50; for Emax: relative to DAMGO, read-out: GTPγS μ Emax. Details: expressed in transfected cells; host or cells: U-2 OS. (Binding of GTPγS marks nucleotide exchange on a G protein.)
Chain of μ-opioid receptor (P35372 whole entry, species assumed): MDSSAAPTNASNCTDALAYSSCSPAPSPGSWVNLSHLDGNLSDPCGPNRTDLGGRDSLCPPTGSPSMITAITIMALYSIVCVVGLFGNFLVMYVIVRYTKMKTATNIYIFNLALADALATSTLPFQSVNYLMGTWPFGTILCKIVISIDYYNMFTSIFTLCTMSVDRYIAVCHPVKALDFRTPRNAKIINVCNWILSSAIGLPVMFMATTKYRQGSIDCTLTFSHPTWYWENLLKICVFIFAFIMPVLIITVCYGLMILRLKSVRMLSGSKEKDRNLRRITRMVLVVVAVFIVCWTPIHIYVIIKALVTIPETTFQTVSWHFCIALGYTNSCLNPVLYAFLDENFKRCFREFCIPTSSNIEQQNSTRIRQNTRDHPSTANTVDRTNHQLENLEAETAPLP

Like-named read-outs stand apart in the source and are kept apart here.

Chain of κ opioid receptor (P41145 whole entry): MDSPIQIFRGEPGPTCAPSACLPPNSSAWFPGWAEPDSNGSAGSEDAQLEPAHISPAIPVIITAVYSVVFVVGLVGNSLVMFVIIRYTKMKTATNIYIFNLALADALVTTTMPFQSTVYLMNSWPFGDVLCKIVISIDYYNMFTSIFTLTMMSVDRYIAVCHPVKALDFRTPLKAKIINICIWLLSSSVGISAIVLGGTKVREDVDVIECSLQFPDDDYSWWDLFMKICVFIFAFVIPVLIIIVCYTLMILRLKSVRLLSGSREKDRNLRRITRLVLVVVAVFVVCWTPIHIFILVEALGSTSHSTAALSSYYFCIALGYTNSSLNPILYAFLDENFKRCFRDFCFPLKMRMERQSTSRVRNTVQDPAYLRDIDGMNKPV

For orientation: EC50 means the concentration needed to bring the measured effect to its halfway point. The Emax is the size of the effect at its maximum, as opposed to the concentration needed. Turning to `CN1CC[C@@]2(C)c3cc(O)ccc3C[C@@H]1[C@H]2NCCNC(=O)OC(C)(C)C` [Compound 112, tert-butyl (2-(((2R,6S,11S)-8-hydroxy-3,6-dimethyl-1,2,3,4,5,6-hexahydro-2,6-methanobenzo[d]azocin-11-yl)amino)ethyl)carbamate], the EC50 in experiment [1] amounted to 0.0234 ± 0.00781 µM; in experiment [2], 0.00756 ± 0.00045 µM. Moreover, the Emax turned out to be 26.3 ± 0.88% in experiment [1] and 83.7 ± 1.45% in experiment [2].
In the case of `C[C@]12CCN(CC3CC3)[C@H](Cc3ccc(O)cc31)[C@H]2NCC1CCNCC1` [Compound 102, (2R,6S,11S)-3-(cyclopropylmethyl)-6-methyl-11-((piperidin-4-ylmethyl)amino)-1,2,3,4,5,6-hexahydro-2,6-methanobenzo[d]azocin-8-ol], the EC50 in experiment [1] (bound in μM) and in experiment [2] (bound in μM) was above 20 µM throughout. For the same compound, the Emax in experiment [1] is -1%; in experiment [2] it was 2.5%.
`C=CC[C@@]12CCN(C)C(Cc3ccc(OC)cc31)[C@@H]2N(C)C(=O)Nc1ccc(C#N)cc1` [Compound 135, 1-((6R,11R)-6-allyl-8-methoxy-3-methyl-1,2,3,4,5,6-hexahydro-2,6-methanobenzo[d]azocin-11-yl)-3-(4-cyanophenyl)-1-methylurea]: the EC50 came to 2.81 ± 0.397 µM in experiment [1] and 1.7 ± 0.112 µM in experiment [2]. In addition, the Emax is 22 ± 2.52% in experiment [1] and 92 ± 2.65% in experiment [2].
Taken in the same sequence, the figures for `CN1CC[C@@]2(C)c3cc(O)ccc3C[C@@H]1[C@H]2NCCc1c[nH]c2ccccc12` [Compound 110, (2R,6S,11S)-11-((2-(1H-indol-3-yl)ethyl)amino)-3,6-dimethyl-1,2,3,4,5,6-hexahydro-2,6-methanobenzo[d]azocin-8-ol] were 0.0254 ± 0.00338 µM, 0.0116 ± 0.00155 µM, 37.7 ± 2.03% and 92.3 ± 2.03%.
For `CN1CC[C@@]2(C)c3cc(O)ccc3C[C@@H]1[C@H]2NCCc1ccncc1` [Compound 103, (2R,6S,11S)-3,6-dimethyl-11-((2-(pyridin-4-yl)ethyl)amino)-1,2,3,4,5,6-hexahydro-2,6-methanobenzo[d]azocin-8-ol], in that order: 0.287 ± 0.062 µM, 0.117 ± 0.00282 µM, 83 ± 8.02% and 77.5 ± 1.26%.
For `CN1CC[C@@]2(C)c3cc(O)ccc3C[C@@H]1[C@@H]2N(C)C(=O)Cc1ccccc1` [Compound 118, N-((2R,6S,11R)-8-hydroxy-3,6-dimethyl-1,2,3,4,5,6-hexahydro-2,6-methanobenzo[d]azocin-11-yl)-N-methyl-2-phenylacetamide], in that order: 0.0908 ± 0.00763 µM, 0.00132 ± 4e-05 µM, 75.2 ± 4.33% and 101 ± 2.52%.
In the case of `COc1ccc(CCN[C@H]2[C@H]3Cc4ccc(O)cc4[C@]2(C)CCN3C)cc1` [Compound 100, (2R,6S,11R)-11-((4-methoxyphenethyl)amino)-3,6-dimethyl-1,2,3,4,5,6-hexahydro-2,6-methanobenzo[d]azocin-8-ol], in experiment [1], the concentration giving a half-maximal response (EC50) came to 1.76 ± 0.364 µM and the Emax amounted to 45 ± 2.08%. In experiment [2], the concentration giving a half-maximal response (EC50) was found to be 0.04 ± 0.00325 µM and the Emax turned out to be 102 ± 1.45%.
As to `C[C@]12CCN(CC3CC3)[C@H](Cc3ccc(O)cc31)[C@@H]2NS(=O)(=O)c1cccc(C(F)(F)F)c1` [Compound 129, N-((2R,6S,11R)-3-(cyclopropylmethyl)-8-hydroxy-6-methyl-1,2,3,4,5,6-hexahydro-2,6-methanobenzo[d]azocin-11-yl)-3-(trifluoromethyl)benzenesulfonamide], the EC50 in experiment [1] is 0.00078 ± 7e-05 µM; in experiment [2] it was 0.00914 ± 0.00119 µM. For the same compound, the values for the Emax in experiment [1] and in experiment [2] were 97.3 ± 1.86% and 20 ± 1.15%, respectively.

Source of the values: patent US10138207B2, “Benzomorphan analogs and the use thereof” (priority 2012, dated 2018).
